Laboratory results published in patent US8846698B2, “Pyrrolo[2,3-d]pyrimidine tropomysin-related kinase inhibitors” (Pfizer Limited, priority 2011, dated 2014).

molecular target: TRKA (Homo sapiens (Human), UniProt P04629); experiment: Isolated TRK enzyme assay (HTRF KinEASE-TK), TRKA; format: biochemical; settings: read-out: Trka enzyme (IC50)
Sequence (P04629 441-796): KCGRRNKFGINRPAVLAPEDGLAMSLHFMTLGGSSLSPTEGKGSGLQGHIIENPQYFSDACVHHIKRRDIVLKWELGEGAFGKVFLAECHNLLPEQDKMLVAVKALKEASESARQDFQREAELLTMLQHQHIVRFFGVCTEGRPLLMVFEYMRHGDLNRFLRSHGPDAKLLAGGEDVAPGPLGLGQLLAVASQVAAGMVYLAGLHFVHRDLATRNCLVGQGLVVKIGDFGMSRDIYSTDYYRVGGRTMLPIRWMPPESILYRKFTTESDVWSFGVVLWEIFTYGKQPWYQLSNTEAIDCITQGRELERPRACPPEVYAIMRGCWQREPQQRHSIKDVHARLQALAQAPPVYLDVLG

Row | IC50 [nM] | SMILES
1 | 1.51 | COCC(C)(C)n1cc(C(=O)c2cncc(NC(=O)Cn3ccc(C4CC4)n3)c2)c2cncnc21 [Example 538, 2-(3-Cyclopropyl-pyrazol-1-yl)-N-{5-[7-(2-methoxy-1,1-dimethyl-ethyl)-7H-pyrrolo[2,3-d]pyrimidine-5-carbonyl]-pyridin-3-yl}-acetamide]
2 | 4.08 | COCC(C)(C)n1cc(C(=O)c2cncc(NC(=O)Cc3ccc(F)cc3)c2)c2cncnc21 [Example 539, 2-(4-Fluoro-phenyl)-N-{5-[7-(2-methoxy-1,1-dimethyl-ethyl)-7H-pyrrolo[2,3-d]pyrimidine-5-carbonyl]-pyridin-3-yl}-acetamide]
3 | 153 | CN(C(=O)Cc1ccc(F)cc1)c1cncc(C(=O)c2cn(C(C)(C)C)c3ncncc23)c1 [Example 540, N-[5-(7-tert-Butyl-7H-pyrrolo[2,3-d]pyrimidine-5-carbonyl)-pyridin-3-yl]-2-(4-fluoro-phenyl)-N-methyl-acetamide]
4 | 50 | CN(C(=O)Cc1ccc(Cl)cn1)c1cncc(C(=O)c2cn(C(C)(C)C)c3ncncc23)c1 [Example 543, N-[5-(7-tert-Butyl-7H-pyrrolo[2,3-d]pyrimidine-5-carbonyl)-pyridin-3-yl]-2-(5-chloro-pyridin-2-yl)-N-methyl-acetamide]
5 | 31.6 | CN(C(=O)Cc1ccc(Cl)cc1)c1cncc(C(=O)c2cn(C(C)(C)C)c3ncncc23)c1 [Example 544, N-[5-(7-tert-Butyl-7H-pyrrolo[2,3-d]pyrimidine-5-carbonyl)-pyridin-3-yl]-2-(4-chloro-phenyl)-N-methyl-acetamide]
6 | 2.95 | CC(C)(C)n1cc(C(=O)c2cncc(NC(=O)Cc3ccc(Cl)cc3)c2)c2cncnc21 [Example 545, N-[5-(7-tert-Butyl-7H-pyrrolo[2,3-d]pyrimidine-5-carbonyl)-pyridin-3-yl]-2-(4-chloro-phenyl)-acetamide]
7 | 5.34 | CC(C)(C)n1cc(C(=O)c2cncc(NC(=O)Cc3ccc(F)cc3)c2)c2cncnc21 [Example 546, N-[5-(7-tert-Butyl-7H-pyrrolo[2,3-d]pyrimidine-5-carbonyl)-pyridin-3-yl]-2-(4-fluoro-phenyl)-acetamide]
8 | 3.88 | COCC(C)(C)n1cc(C(=O)c2cncc(NC(=O)Cc3ccc(Cl)cn3)c2)c2cnc(N)nc21 [Example 547, N-{5-[2-Amino-7-(2-methoxy-1,1-dimethyl-ethyl)-7H-pyrrolo[2,3-d]pyrimidine-5-carbonyl]-pyridin-3-yl}-2-(5-chloro-pyridin-2-yl)-acetamide]
9 | 21.2 | COCC(C)(C)n1cc(C(=O)c2cncc(NC(=O)Cc3ccc(F)cn3)c2)c2cnc(N)nc21 [Example 548, N-{5-[2-Amino-7-(2-methoxy-1,1-dimethyl-ethyl)-7H-pyrrolo[2,3-d]pyrimidine-5-carbonyl]-pyridin-3-yl}-2-(5-fluoro-pyridin-2-yl)-acetamide]
10 | 3.22 | COCC(C)(C)n1cc(C(=O)c2cncc(NC(=O)Cn3ccc(C(F)(F)F)n3)c2)c2cnc(N)nc21 [Example 549, N-{5-[2-Amino-7-(2-methoxy-1,1-dimethyl-ethyl)-7H-pyrrolo[2,3-d]pyrimidine-5-carbonyl]-pyridin-3-yl}-2-(3-trifluoromethyl-pyrazol-1-yl)-acetamide]
11 | 16.1 | COCC(C)(C)n1cc(C(=O)c2cncc(NC(=O)Cn3cc(C(F)(F)F)nn3)c2)c2cnc(N)nc21 [Example 550, N-{5-[2-Amino-7-(2-methoxy-1,1-dimethyl-ethyl)-7H-pyrrolo[2,3-d]pyrimidine-5-carbonyl]-pyridin-3-yl}-2-(4-trifluoromethyl-[1,2,3]triazol-1-yl)-acetamide]
12 | 2.78 | COCC(C)(C)n1cc(C(=O)c2cncc(NC(=O)Cn3cc(C(F)(F)F)cn3)c2)c2cnc(N)nc21 [Example 551, N-{5-[2-Amino-7-(2-methoxy-1,1-dimethyl-ethyl)-7H-pyrrolo[2,3-d]pyrimidine-5-carbonyl]-pyridin-3-yl}-2-(4-trifluoromethyl-pyrazol-1-yl)-acetamide]
13 | 7.62 | COCC(C)(C)n1cc(C(=O)c2cncc(NC(=O)Cn3cc(C4CC4)nn3)c2)c2cnc(N)nc21 [Example 552, N-{5-[2-Amino-7-(2-methoxy-1,1-dimethyl-ethyl)-7H-pyrrolo[2,3-d]pyrimidine-5-carbonyl]-pyridin-3-yl}-2-(4-cyclopropyl-[1,2,3]triazol-1-yl)-acetamide]
14 | 4.4 | CC(C)(CO)n1cc(C(=O)c2cncc(NC(=O)Cn3cc4ccccc4n3)c2)c2cnc(N)nc21 [Example 553, N-{5-[2-Amino-7-(2-hydroxy-1,1-dimethyl-ethyl)-7H-pyrrolo[2,3-d]pyrimidine-5-carbonyl]-pyridin-3-yl}-2-indazol-2-yl-acetamide]
15 | 270 | CC(C)(CO)n1cc(C(=O)c2cncc(NC(=O)Cn3cnc4ccccc4c3=O)c2)c2cnc(N)nc21 [Example 554, N-{5-[2-Amino-7-(2-hydroxy-1,1-dimethyl-ethyl)-7H-pyrrolo[2,3-d]pyrimidine-5-carbonyl]-pyridin-3-yl}-2-(4-oxo-4H-quinazolin-3-yl)-acetamide]
16 | 150 | CC(C)(CO)n1cc(C(=O)c2cncc(NC(=O)Cc3ncc(F)cc3F)c2)c2cnc(N)nc21 [Example 555, N-{5-[2-Amino-7-(2-hydroxy-1,1-dimethyl-ethyl)-7H-pyrrolo[2,3-d]pyrimidine-5-carbonyl]-pyridin-3-yl}-2-(3,5-difluoro-pyridin-2-yl)-acetamide]
17 | 3.16 | Cc1ccc(CC(=O)Nc2cncc(C(=O)c3cn(C(C)(C)CO)c4nc(N)ncc34)c2)nc1 [Example 556, N-{5-[2-Amino-7-(2-hydroxy-1,1-dimethyl-ethyl)-7H-pyrrolo[2,3-d]pyrimidine-5-carbonyl]-pyridin-3-yl}-2-(5-methyl-pyridin-2-yl)-acetamide]
18 | 9.47 | CN(c1ccc(CC(=O)Nc2cncc(C(=O)c3cn(C(C)(C)CO)c4nc(N)ncc34)c2)cc1)S(C)(=O)=O [Example 557, N-(5-{[2-amino-7-(2-hydroxy-1,1-dimethylethyl)-7H-pyrrolo[2,3-d]pyrimidin-5-yl]carbonyl}pyridin-3-yl)-2-{4-[methyl(methylsulfonyl)amino]phenyl}-acetamide]
19 | 5.56 | CC(C)(CO)n1cc(C(=O)c2cncc(NC(=O)Cc3nc4ccccc4[nH]3)c2)c2cnc(N)nc21 [Example 558, N-{5-[2-Amino-7-(2-hydroxy-1,1-dimethyl-ethyl)-7H-pyrrolo[2,3-d]pyrimidine-5-carbonyl]-pyridin-3-yl}-2-(1H-benzoimidazol-2-yl)-acetamide]
20 | 374 | CC(C)(CO)n1cc(C(=O)c2cncc(NC(=O)Cn3cc(C(F)(F)F)ccc3=O)c2)c2cnc(N)nc21 [Example 559, N-{5-[2-Amino-7-(2-hydroxy-1,1-dimethyl-ethyl)-7H-pyrrolo[2,3-d]pyrimidine-5-carbonyl]-pyridin-3-yl}-2-(2-oxo-5-trifluoromethyl-2H-pyridin-1-yl)-acetamide]
21 | 1610 | CC(C)(CO)n1cc(C(=O)c2cncc(NC(=O)Cc3ncc(Cl)cc3F)c2)c2cnc(N)nc21 [Example 560, N-{5-[2-Amino-7-(2-hydroxy-1,1-dimethyl-ethyl)-7H-pyrrolo[2,3-d]pyrimidine-5-carbonyl]-pyridin-3-yl}-2-(5-chloro-3-fluoro-pyridin-2-yl)-acetamide]
22 | 112 | CCOc1ccc(CC(=O)Nc2cncc(C(=O)c3cn(C(C)(C)CO)c4nc(N)ncc34)c2)nc1 [Example 561, N-{5-[2-Amino-7-(2-hydroxy-1,1-dimethyl-ethyl)-7H-pyrrolo[2,3-d]pyrimidine-5-carbonyl]-pyridin-3-yl}-2-(5-ethoxy-pyridin-2-yl)-acetamide]
23 | 3.75 | CC(C)(CO)n1cc(C(=O)c2cncc(NC(=O)Cc3ccc(C(F)(F)F)cn3)c2)c2cnc(N)nc21 [Example 562, N-{5-[2-Amino-7-(2-hydroxy-1,1-dimethyl-ethyl)-7H-pyrrolo[2,3-d]pyrimidine-5-carbonyl]-pyridin-3-yl}-2-(5-trifluoromethyl-pyridin-2-yl)-acetamide]
24 | 3.11 | CC(C)(CO)n1cc(C(=O)c2cncc(NC(=O)Cn3cc(C(F)(F)F)cn3)c2)c2cnc(N)nc21 [Example 563, N-{5-[2-Amino-7-(2-hydroxy-1,1-dimethyl-ethyl)-7H-pyrrolo[2,3-d]pyrimidine-5-carbonyl]-pyridin-3-yl}-2-(4-trifluoromethyl-pyrazol-1-yl)-acetamide]
25 | 1.57 | CC(C)(CO)n1cc(C(=O)c2cncc(NC(=O)Cc3ccc(NS(C)(=O)=O)cc3)c2)c2cnc(N)nc21 [Example 564, N-{5-[2-Amino-7-(2-hydroxy-1,1-dimethyl-ethyl)-7H-pyrrolo[2,3-d]pyrimidine-5-carbonyl]-pyridin-3-yl}-2-(4-methanesulfonylamino-phenyl)-acetamide]
26 | 17.9 | CC(C)(CO)n1cc(C(=O)c2cncc(NC(=O)Cc3ccc(OC(F)F)cc3)c2)c2cnc(N)nc21 [Example 565, N-{5-[2-Amino-7-(2-hydroxy-1,1-dimethyl-ethyl)-7H-pyrrolo[2,3-d]pyrimidine-5-carbonyl]-pyridin-3-yl}-2-(4-difluoromethoxy-phenyl)-acetamide]
27 | 20.8 | CC(C)(CO)n1cc(C(=O)c2cncc(NC(=O)Cc3ccc(OC(F)(F)F)cc3)c2)c2cnc(N)nc21 [Example 567, N-{5-[2-Amino-7-(2-hydroxy-1,1-dimethyl-ethyl)-7H-pyrrolo[2,3-d]pyrimidine-5-carbonyl]-pyridin-3-yl}-2-(4-trifluoromethoxy-phenyl)-acetamide]
28 | 12.1 | CC(C)(CO)n1cc(C(=O)c2cncc(NC(=O)Cc3ccc(F)c(F)c3)c2)c2cnc(N)nc21 [Example 568, N-{5-[2-Amino-7-(2-hydroxy-1,1-dimethyl-ethyl)-7H-pyrrolo[2,3-d]pyrimidine-5-carbonyl]-pyridin-3-yl}-2-(3,4-difluoro-phenyl)-acetamide]
29 | 34.4 | CC(C)(CO)n1cc(C(=O)c2cncc(NC(=O)Cc3ncc(Cl)cn3)c2)c2cnc(N)nc21 [Example 569, N-{5-[2-Amino-7-(2-hydroxy-1,1-dimethyl-ethyl)-7H-pyrrolo[2,3-d]pyrimidine-5-carbonyl]-pyridin-3-yl}-2-(5-chloro-pyrimidin-2-yl)-acetamide]
